This is an account of results in patent US4234736A, “Antiandrogenic and schistosomicidal imidazolidine derivatives” (Hoffmann-La Roche Inc., priority 1977, dated 1980).

The structures appear in SMILES notation. “And” between values parts separate entries of the source, which are not always exact repeats. Identical values can stand only once. Bounds are passed on as bounds.

In one data set the test system is ventral prostate. Description: Antiandrogenic test: ventral prostate weight in testosterone propionate-treated rats. The format is in vivo, rat. The following applies: sterilized male rats, 5 per group; s.c. daily for 7 days; compound 10 mg/kg + testosterone propionate 0.5 mg/kg, or testosterone propionate 0.5 mg/kg alone. The protocol: (§1) The antiandrogenic activity of the compositions of this invention can be determined in the following test:
(§2) 10 mg. per kg of the composition together with 0.5 mg. per kg. of testosterone propionate are administered s.c. daily for 7 days to each of 5 male, sterilized rats. Two control groups of 5 rats each were also used. One control group received no treatment. The second control group received only 0.5 mg. per kg. of testosterone propionate.
(§3) Testosterone propionate causes an increase in weight in the ventral prostrate and the seminal vesicle. Thus, a decrease in weight in the ventral prostrate and the seminal vesicle when a composition containing a compound of formula I is given to the rats in combination with testosterone propionate is a measure of the antiandrogenic activity of that compound.

The next data set has as its system seminal vesicle. Description: Antiandrogenic test: seminal vesicle weight in testosterone propionate-treated rats. The format is in vivo, rat. To be noted: sterilized male rats, 5 per group; s.c. daily for 7 days; compound 10 mg/kg + testosterone propionate 0.5 mg/kg, or testosterone propionate 0.5 mg/kg alone. The protocol:
as §1, §2, §3

The test system of the next data set is Schistosoma mansoni. Description: Schistosomicidal activity in infected mice (VD50). The format is in vivo. To be noted: po, 1008 h, p.o., administered 5 times (5 successive days), from 42 days after infection, Probit method, read-out: VD50 (vermicidal dose 50%: the dose which kills 50% of the worm pairs). The protocol:
Mice were infected subcutaneously with 60 cercariae of Schistosoma mansoni. 42 days after the infection, the animals were treated perorally on 5 successive days with the compositions to be tested 5-10 mice were used for each composition and dosage rate (mg/kg). 10 untreated mice serve as the control. The mice were autopsied either 6 days or 2-3 weeks after conclusion of the treatment. Worm pairs in mesenteric veins, the portal vein and the liver were removed and counted. The percent distribution of the worm pairs in mesenteric veins, the portal vein and the liver was calculated and the condition of the worms (living and dead) recorded. The schistosomicidal activity of the compositions containing a compound of formula I is shown both by an increased proportion of worms in the vessels of the liver and in the appearance of dead worms.
For the evaluation, the percentage proportions of living and dead worm pairs in the vessels of the liver both in infected, treated animals and in infected but untreated control animals were compared. The determination of the VD50 (vermicidal dose 50%: the dose which kills 50% of the worm pairs) is carried out by the Probit method.

Data set [1] in a line: LD50 (acute toxicity), p.o. To be noted: in vivo, po, species not given.

By LD50 is commonly meant the dose expected to kill half of the subjects tested. A high value points to a less toxic substance. Turning to `CC1(C)NC(=O)N(c2ccc(Cl)c(Cl)c2)C1=O` [3-(3,4-Dichloro-phenyl)-5,5-dimethyl-hydantoin], in the data set on ventral prostate, the Ventral prostate weight is reported as 36 ± 4 mg. The Seminal vesicle weight in the data set with seminal vesicle stood at 29 ± 2 mg. Moreover, in the data set on Schistosoma mansoni, the ED50 amounted to 58 mg/kg. Besides, the median lethal dose (LD50) in data set [1] fell in the range of 2500 to 5000 mg/kg.
Regarding `CC1(C)NC(=O)N(c2cccc(C(F)(F)F)c2)C1=O` [3-(3-Trifluoromethyl-phenyl)-5,5-dimethyl-hydantoin], the median lethal dose (LD50) in data set [1] was in the range of 625 to 1250 mg/kg.
Consider `CC1(C)NC(=O)N(c2ccc(Cl)cc2)C1=O` [3-(4-Chloro-phenyl)-5,5-dimethyl-hydantoin], for which, in the data set with Schistosoma mansoni, the ED50 turned out to be 77 mg/kg. In data set [1], this molecule displayed a 50% lethal dose (LD50) of 1250 to 2500 mg/kg.
The matching figures for `CC1(C)NC(=O)N(c2ccc(F)cc2)C1=O` [3-(4-Fluoro-phenyl)-5,5-dimethyl-hydantoin]: 69 mg/kg and 600 to 1200 mg/kg.
`COC(=O)C(C)(C)NC(=O)Nc1ccc(Cl)c(C(F)(F)F)c1` [N-[(3-Trifluoromethyl-4-chloro-phenyl)-carbamoyl]-2-methylalanine methyl ester]: in the data set on ventral prostate, the Ventral prostate weight is reported as 61 ± 6 mg. Moreover, the Seminal vesicle weight in the data set on seminal vesicle stood at 47 ± 11 mg. Also, the ED50 in the data set on Schistosoma mansoni is 74 mg/kg. In data set [1], this molecule gave a 50% lethal dose (LD50) greater than 5000 mg/kg.
Take `CCC(=O)O[C@H]1CC[C@H]2[C@@H]3CCC4=CC(=O)CC[C@]4(C)[C@H]3CC[C@]12C` [Testosterone propionate, reference compound]: the Ventral prostate weight in the data set on ventral prostate was 140 ± 11 mg and 121 ± 13 mg. For the same molecule, in the data set on seminal vesicle, the Seminal vesicle weight is 88 ± 5 mg and 100 ± 9 mg.
